Measured values as given in patent publication US9528112B2, “Composition comprising material for inhibiting SCF or receptor thereof for treating or preventing diseases associated with vascular permeability” (AJOU UNIVERSITY INDUSTRY-ACADEMIC COOPERATION FOUNDATION, priority 2012, dated 2016).

Assays:
[1] = system: VE-cadherin; test: VE-cadherin endocytosis of vascular endothelial cells (immunostaining); format: cell-based; settings: SCF 20 ng/ml or VEGF 50 ng/ml, 37° C., 30 minutes; for expression of VE-cadherin on the cell surface: FIG. 2C; for endocytosis of VE-cadherin: acid buffer wash, FIG. 2D
Procedure: Vascular endothelial cells were cultured in 8 well chamber slide (Lab-Tek) for 48 hours. The medium was replaced with the endothelical basal medium supplemented with 1% FBS, followed by culture for 16 hours. The cells were treated with VE-cadherin antibody (R&D Systems, Minneapolis, Minn., USA) at 4° C. for 1 hour. SCF (20 ng/ml) and VEGF (50 ng/ml) (R&D Systems, Minneapolis, Minn., USA) were added thereto at 37° C. for 30 minutes to introduce VE-cadherin into the cells. To observe VE-cadherin on the cell surface, fixation was performed with 4% PFA, followed by immunostaining. To observe VE-cadherin in the inside of the cells migrated by SCF and VEGF mediated endocytosis, VE-cadherin on the cell surface was first removed by using an acid buffer (pH 2.7) and then the cells were fixed with 4% PFA, followed by immunostaining. Then, observation under a fluorescence microscope was performed.

[2] = system: vascular endothelial cells; test: eNOS dependent increase of vascular endothelial cell permeability by SCF (L-NAME, transwell); format: cell-based; settings: SCF 20 ng/ml for 1 hour; FIG. 2B
Procedure: Vascular endothelial cells were loaded in the upper chamber of 12 well transwell filter (Corning Costar), followed by culture for 48 hours. The medium was replaced with the endothelical basal medium supplemented with 1% FBS, followed by further culture for 3 hours. L-NAME, the eNOS inhibitor, was pretreated (1 mM) to the cells for 30 minutes and then SCF (R&D Systems, Minneapolis, Minn., USA) was treated (20 ng/ml) thereto for 1 hour. FITC-conjugated dextran (fluorescein isothiocyanate-dextran) was also treated (1 mg/ml) thereto. 30 minutes later, the culture fluid was taken from the lower chamber, followed by the measurement with a fluorophotometer.

[3] = system: vascular endothelial cells; test: C-Kit dependent permeability of vascular endothelial cells with SCF (siRNA, transwell, FITC-dextran); format: cell-based; settings: SCF 20 ng/ml; FITC-conjugated dextran; FIG. 1B
Procedure: Vascular endothelial cells were loaded in 60 mm plate. The control siRNA 5′-[…]-3′ (SEQ. ID. NO: 1) and the C-Kit siRNAs 5′-UCAUUCUUGAUGUCUCUGG-3′ (SEQ. ID. NO: 2); 5′-UUUGAGUUCAGACAUGAGG-3′ (SEQ. ID. NO: 3); 5′-UCUUAUAAAGUGCAGCUUC-3′ (SEQ. ID. NO: 4); and 5′-UACAAUGCCAUUCUGAAGC-3′ (SEQ. ID. NO: 5) were introduced in the cells by using lipofectamin. 24 hours later, the endothelial cells were transferred into the upper chamber of 12 well transwell filter (Corning Costar), followed by culture for 24 hours. The medium was replaced with the endothelical basal medium supplemented with 1% FBS, followed by further culture for 3 hours. SCF was treated thereto at the concentration of 20 ng/ml, followed by the treatment with FITC-conjugated dextran (1 mg/ml). 30 minutes later, the culture fluid was taken from the lower chamber, followed by the measurement with a fluorophotometer.

[4] = system: C-Kit and Akt-eNOS; test: Intracellular signaling pathway of vascular endothelial cells with SCF (Western blotting); format: cell-based; settings: SCF 20 ng/ml, cells harvested over time, FIG. 1C
Procedure: Vascular endothelial cells were loaded in 60 mm plate, followed by culture for 24 hours. The medium was replaced with the endothelical basal medium supplemented with 1% FBS, followed by further culture for 6 hours. SCF (20 ng/ml) was treated thereto and the cells were harvested over the time, followed by Western blotting.

[5] = system: NO (nitric oxide) in vascular endothelial cells; test: Generation of NO in vascular endothelial cells induced by SCF; format: cell-based; settings: SCF 20 ng/ml; culture supernatant collected over time; FIG. 2A
Procedure: Vascular endothelial cells were cultured in 12 well plate for 24 hours. The medium was replaced with the endothelial basal medium supplemented with 1% FBS, which was then treated with SCF (20 ng/ml). The culture fluid was collected over the time, followed by centrifugation. The level of NO (nitric oxide) in the supernatant was measured (Total No/Nitrite/Nitrate Assay Kit).

[6] = system: C57/BL mouse; test: Vascular permeability in mouse subcutaneous tissue (Evans blue dye, back skin, OD620); format: in vivo; settings: SCF injected intradermally; skin collected after 20 minutes; FIG. 3A, 3B
Procedure: Evans blue dye […] was injected intravenously in the tail of C57/BL mouse. 10 minutes later, SCF and SCF receptor inhibiting antibody (anti-cKit IgG: Monoclonal anti-SCF receptor neutralization antibody: R&D Systems, Minneapolis, Minn., USA) were injected intradermally on the back of the mouse. 20 minutes later, the back skin of the mouse was collected. The region where Evans blue dye was penetrated through tissues was photographed. The skin was fixed in formamide, which stood at room temperature for 4 days. Then, OD620 was measured by using a spectrophotometer.

[7] = system: vascular endothelial cells; test: Vascular endothelial cell permeability with SCF (transwell, FITC-dextran); format: cell-based; settings: SCF 10, 20 and 50 ng/ml for 1 hour; FITC-conjugated dextran 1 mg/ml, 30 minutes; FIG. 1A
Procedure: Vascular endothelial cells were loaded in the upper chamber of 12 well transwell filter (Corning Costar), followed by culture for 48 hours. The medium was replaced with the endothelical basal medium supplemented with 1% FBS, followed by further culture for 3 hours. SCF (R&D Systems, Minneapolis, Minn., USA) was treated thereto at different concentrations (10, 20, and 50 ng/ml) for 1 hour, followed by the treatment with FITC-conjugated dextran (fluorescein isothiocyanate-dextran) (1 mg/ml). 30 minutes later, the culture fluid was taken from the lower chamber, followed by the measurement with a fluorophotometer.

[8] = system: mouse retinal vessels; test: Angiography of mouse retinal vessels (FITC-dextran, flat mount); format: in vivo; settings: SCF injected in the retina; 24 hours; FIG. 4A, 4B
Procedure: SCF and SCF receptor inhibiting antibody were injected in the retina of C57/BL6 mouse. 24 hours later, the mouse was anesthetized and then intracardiac FITC-dextran injection was performed in order to let the fluorescein flow through blood. 30 minutes later, the retina of the mouse was extracted and observed under a fluorescence microscope after flat mounting.

| Substance | expression of VE-cadherin on the cell surface [1] | endocytosis of VE-cadherin [1] | permeability of endothelial cells [2] | permeability of the endothelial cells [3] | phosphorylation of C-Kit and Akt-eNOS [4] | level of NO [5] | vascular permeability of the mouse (Evans blue leakage in back skin) [6] | permeability of vascular endothelial cells [7] | retinal vessel permeability [8] |
| --- | --- | --- | --- | --- | --- | --- | --- | --- | --- |
| SCF: cytokine binding to C-Kit (CD117); R&D Systems | reduced | induced | increased | increased | induced the phosphorylation | increased | increased | increased by the treatment of SCF dose-dependently | increased |
| VEGF | decreased | increased |  |  |  |  |  |  |  |
